Test results as given in patent US5447937A, “CNS active tetrahydrobenzothienopyridines” (SmithKline Beecham p.l.c., priority 1991, dated 1995).

Assays:
Rats = assay: Geller-Seifter procedure (conflict session, anxiolytic properties); type: in vivo, rat; conditions: FR5 conflict session
Experimental: 1. Geller-Seifter Procedure
Potential anxiolytic properties have been evaluated using the Geller-Seifter procedure based on that originally described by Geller and Seifter, (1960) Psychopharmacologia, 1,482-492.
Rats are trained on a variable interval 30 sec schedule (VI30) to press a lever in order to obtain food reward. The 5 min sessions of the VI30 schedule alternate with 2-5 min of a schedule (FR5) in which every 5th lever press is followed by presentation of a food pellet paired with a 0.5 sec mild footshock. The total study lasts approximately 30 mins. Rats typically respond with high rates of lever pressing under the VI30 schedule and low response rates under the FR5 `conflict` session. Anxiolytic drugs increase the suppressed response rates of rats in `conflict` session.
Drugs are administered intraperitoneally or orally to groups of 3-8 rats 30 min before testing.
The results are expressed as the percentage increase in square root of the total number of lever presses in the FR5 `conflict` session. Square root transformation is necessary to normalise the data for statistical analysis using parametric methods (ANOVA).

[1] = target: rat cerebral cortex membranes ([35S]-TBPS binding); assay: [35S]-TBPS binding to rat cerebral cortex membranes in vitro; conditions: 2 nM [35S]-TBPS, 5x10^-6 M GABA
Experimental: 2. [^35 S]-TBPS binding to rat cerebral cortex membranes in vitro
Pooled rat cerebral cortices are homogenised in 20 volumes of 0.32M sucrose and centrifuged at 1000 g for 20 minutes (4° C.). The supernatant is removed and recentrifuged at 50,000 g (4° C., 20 mins). The P2 pellet is then suspended in 20 volumes of Tris citrate buffer (pH 7.1) and centrifuged at 50,000 g (4° C., 20 mins). This washing step is repeated three times and the pellet finally resuspended in 20 volumes of buffer and stored at -70° C. prior to use.
The tissue suspension ([…]) is incubated (25° C., 120 mins) with [^35 S]-TBPS (2 nM) in Tris citrate buffer (pH 7.1) containing 0.2M NaCl and 5×10^-6 M GABA. Non-specific binding is measured in the presence of 10^-4 M picrotoxin. Varying concentrations of test drugs (10^-7, 10^-6, 10^-5 and 10^-4 M final concentration) are added in a volume of […]. The total assay volume is […]. Incubation is stopped by rapid filtration using a Skatron cell harvester and radioactivity measured by liquid scintillation spectrometry. IC50 's are calculated as the concentration of test drug to inhibit 50% of specific binding.

Mice = assay: MES Test (maximal electroshock seizure); type: in vivo, mouse; conditions: 100 mg/kg p.o.
Experimental: The maximal electroshock seizure (MES) test in rodents is one of the most widely used models of human grand mal epilepsy^1. In this model, anticonvulsant agents elevate the threshold to electrically-induced seizures whilst proconvulsants lower the seizure threshold.
Mice (male, Charles River, U.K. CD-1 strain, 25-30 g) are randomly assigned to groups of 10-20 and dosed orally or intraperitoneally at a dose volume of 10 ml/kg with various doses of compound (1-100 mg/kg) or vehicle. Mice are then subjected at 30 or 60 rain post dose to a variable voltage electroshock (0.1 sec., 50 Hz, sine wave form) via a buccal and a subcutaneous electrode. The mean voltage and standard error required to induce a tonic seizure in 50% (CV50) of the mice in the group is determined by the `up and down` method of Dixon and Mood (1948)^2. Statistical comparisons between vehicle- and drug-treated groups are made using the method of Litchfield and Wilcoxon (1949)^3.
If a tonic convulsion does occur, then the voltage is decreased, and so on until all the animals in the group have been tested.
The percentage increase or decrease in CV50 for each group compared to the control is calculated.
Studies are carried out using a Heathkit shock generator with totally variable control of shock level from 0 to 200 V and voltage steps of 5 V are used.
Drugs are suspended in 1% methyl cellulose.

Row | SMILES | IC50 [1] [µM] | responding in the 'conflict' session (Rats; 20 mg/kg p.o.) | CV50 (voltage inducing tonic seizure in 50% of mice) (Mice) | responding in the 'conflict' session (Rats; 10 mg/kg p.o.)
1 | CCOC(=O)c1c(C)nc2sc3c(c2c1N)CCC(O)C3 (racemic) [Example 1, (±)-4-Amino-7-hydroxy-2-methyl-5,6,7,8-tetrahydrobenzo[b]thieno[2,3-b]pyridine-3-carboxylic acid, ethyl ester] | < 20 | significant increase | significant increase | 
2 | COC(=O)c1c(C)nc2sc3c(c2c1N)CCC(O)C3 (racemic) [Example 7, (±)-4-Amino-7-hydroxy-2-methyl-5,6,7,8-tetrahydrobenzo[b]thieno[2,3-b]pyridine-3-carboxylic acid, methyl ester] |  | significant increase |  | 
3 | C#CCOC(=O)c1c(C)nc2sc3c(c2c1N)CCC(O)C3 (racemic) [Example 8, (±)-4-Amino-7-hydroxy-2-methyl-5,6,7,8-tetrahydrobenzo[b]thieno[2,3-b]pyridine-3-carboxylic acid, prop-2-ynyl ester] |  |  |  | significant increase
4 | C#CCCOC(=O)c1c(C)nc2sc3c(c2c1N)CCC(O)C3 (racemic) [Example 9, (±)-4-Amino-7-hydroxy-2-methyl-5,6,7,8-tetrahydrobenzo[b]thieno[2,3-b]pyridine-3-carboxylic acid, but-3-ynyl ester] |  |  |  | significant increase
5 | C=CCCOC(=O)c1c(C)nc2sc3c(c2c1N)CCC(O)C3 (racemic) [Example 10, (±)-4-Amino-7-hydroxy-2-methyl-5,6,7,8-tetrahydrobenzo[b]thieno[2,3-b]pyridine-3-carboxylic acid, but-3-enyl ester] |  | significant increase |  | 

Second part, led by results:

Row | IC50 [1] [µM] | SMILES | responding in the 'conflict' session (Rats; 20 mg/kg p.o.) | CV50 (voltage inducing tonic seizure in 50% of mice) (Mice) | responding in the 'conflict' session (Rats; 10 mg/kg p.o.)
6 | < 20 | CC#CCOC(=O)c1c(C)nc2sc3c(c2c1N)CCC(O)C3 (racemic) [Example 4, (±)-4-Amino-7-hydroxy-2-methyl-5,6,7,8-tetrahydrobenzo[b]thieno[2,3-b]pyridine-3-carboxylic acid, but-2-ynyl ester] | significant increase |  | 
7 | < 20 | Cc1nc2sc3c(c2c(N)c1C(=O)OCC1CCC1)CCC(O)C3 (racemic) [Example 5, (±)-4-Amino-7-hydroxy-2-methyl-5,6,7,8-tetrahydrobenzo[b]thieno[2,3-b]pyridine-3-carboxylic acid, cyclobutylmethyl ester] |  |  | 
8 | < 20 | Cc1nc2sc3c(c2c(N)c1C(=O)OCC1CC1)CCC(O)C3 (racemic) [Example 6, (±)-4-Amino-7-hydroxy-2-methyl-5,6,7,8-tetrahydrobenzo[b]thieno[2,3-b]pyridine-3-carboxylic acid, cyclopropylmethyl ester] | significant increase |  | 
9 | < 20 | CCOC(=O)c1c(C)nc2sc3c(c2c1N(C)C)CCC(OC)C3 (racemic) [Example 19, (±)-4-Dimethylamino-7-methoxy-2-methyl-5,6,7,8-tetrahydrobenzo[b]thieno[2,3-b]pyridine-3-carboxylic acid, ethyl ester] |  |  | 
10 | < 20 | CCOC(=O)c1c(C)nc2sc3c(c2c1N)CCC(O)C3 (single isomer, unassigned; (+)) [Example 3, (+)-4-Amino-7-hydroxy-2-methyl-5,6,7,8-tetrahydrobenzo[b]thieno[2,3-b]pyridine-3-carboxylic acid, ethyl ester] |  |  | 
